Consider eight compounds from patent US20250313572A1, “MACROCYCLIC MCL-1 INHIBITORS AND METHODS OF USE” (AbbVie Inc., priority 2017, published 2025).

The target of one test is GST-MCL-1 (Homo sapiens, UniProt Q07820). As to the kind of experiment: TR-FRET MCL-1 binding assay (competition with probe F-Bak). As to the method:
Tb-anti-GST antibody was purchased from Invitrogen (Catalog No. PV4216).
For the assay, an acoustic dispenser was used to prepare dilution series from 10 mM test compounds in 100% DMSO and directly transfer 160 nL into low volume 384-well assay plates. 8 μL of a protein/probe/antibody mix was then added to each well resulting in final concentrations listed below: • Test compound: 11 three-fold dilutions beginning at 25 μM
The samples were then mixed on a shaker for 1 minute and incubated for an additional 2 hours at room temperature. For each assay plate, a probe/antibody and protein/antibody/probe mixture were included as a negative and a positive control, respectively. Fluorescence was measured on the Envision (Perkin Elmer) using a 340/35 nm excitation filter and 520/525 (F-Bak) and 495/510 nm (Tb-labeled anti-his antibody) emission filters. […] The TR-FRET assay can be performed in the presence of varying concentrations of human serum (HS) or fetal bovine serum (FBS). Compounds were tested both without HS and in the presence of 10% HS.

Test [1] relates to NCI-H929 human multiple myeloma tumor cell line. As to the kind of experiment: NCI-H929 cell viability assay (CellTiter-Glo, 24 hours). The test is classed as cell-based.
Test [2] relates to AMO-1 human multiple myeloma tumor cell line. Kind of test: AMO-1 cell viability assay (CellTiter-Glo, 24 hours). The test is classed as cell-based.
[3] abbreviates: MCL-1 Binding Ki (nM, 10% HS), in the presence of 10% HS (human serum).
Where [4] appears, read: without HS, read-out: MCL-1 Binding Ki.
Setting [5] is: Homo sapiens, NCI-H929, 24 h, read-out: H929 Viability IC50 (μM, 10% FBS), 10% FBS, 24 hours of compound treatment.
[6] abbreviates: Homo sapiens, AMO1, 24 h, read-out: AMO-1 Viability IC50 (μM, 10% FBS), 10% FBS, 24 hours of compound treatment.
Setting [7] is: read-out: H929 Viability IC50 (μM, 10% FBS), 10% FBS, 24 hours of compound treatment.
Where [8] appears, read: read-out: AMO-1 Viability IC50 (μM, 10% FBS), 10% FBS, 24 hours of compound treatment.

Like-named read-outs stand apart in the source and are kept apart here.

Chain of GST-MCL-1 (Q07820 whole entry): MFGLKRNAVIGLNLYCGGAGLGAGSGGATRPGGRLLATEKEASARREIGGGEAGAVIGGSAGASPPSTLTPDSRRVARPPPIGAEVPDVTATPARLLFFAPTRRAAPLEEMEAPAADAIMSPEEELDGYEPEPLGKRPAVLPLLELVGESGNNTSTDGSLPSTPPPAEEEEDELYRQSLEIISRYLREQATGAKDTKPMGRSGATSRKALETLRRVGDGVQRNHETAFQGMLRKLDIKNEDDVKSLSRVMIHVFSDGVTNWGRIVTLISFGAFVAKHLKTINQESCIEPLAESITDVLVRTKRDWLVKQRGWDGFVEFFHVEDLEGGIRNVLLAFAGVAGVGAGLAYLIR

Turning to `Cc1c2ccc(c1Cl)O[C@H](CN1CCN(C)CC1)COc1ccc(OCc3ccnc(-c4ccccc4C(=O)O)n3)c(c1)C[C@H](C(=O)O)Oc1ncnc3sc(-c4ccc(F)cc4)c-2c13` (atropisomer, axis not shown) [Example 19, (7R,16R)-10-{[2-(2-carboxyphenyl)pyrimidin-4-yl]methoxy}-19-chloro-1-(4-fluorophenyl)-20-methyl-16-[(4-methylpiperazin-1-yl)methyl]-7,8,15,16-tetrahydro-18,21-etheno-13,9-(metheno)-6,14,17-trioxa-2-thia-3,5-diazacyclononadeca[1,2,3-cd]indene-7-carboxylic Acid], the Ki at GST-MCL-1 (setting [3]) is 0.069 nM; on GST-MCL-1 (setting [4]) it was 0.006 nM. In addition, the IC50 in test [1] (setting [5]) is 0.365 µM; in test [2] (setting [6]) it was 0.0963 µM.

Regarding `COCCOCCOCCC1CCN(C[C@@H]2COc3ccc(OCc4ccnc(-c5ccccc5OC)n4)c(c3)C[C@H](C(=O)O)Oc3ncnc4sc(-c5ccc(F)cc5)c(c34)-c3ccc(c(Cl)c3C)O2)CC1` (atropisomer, axis not shown) [Example 21, (7R,16R,21S)-19-chloro-1-(4-fluorophenyl)-16-[(4-{2-[2-(2-methoxyethoxy)ethoxy]ethyl}piperidin-1-yl)methyl]-10-{[2-(2-methoxyphenyl)pyrimidin-4-yl]methoxy}-20-methyl-7,8,15,16-tetrahydro-18,21-etheno-13,9-(metheno)-6,14,17-trioxa-2-thia-3,5-diazacyclononadeca[1,2,3-cd]indene-7-carboxylic Acid], the Ki on GST-MCL-1 (setting [3]) came to 0.556 nM; on GST-MCL-1 (setting [4]) it was 0.059 nM. Besides, the results for the IC50 in test [1] (setting [7]) and in test [2] (setting [8]) were 0.0102 µM and 0.0143 µM, respectively.

For `Cc1c2ccc(c1Cl)O[C@H](CN1CCN(C)CC1)COc1ccc(OCc3ccnc(-c4ccccc4OCC(=O)O)n3)c(c1)C[C@H](C(=O)O)Oc1ncnc3sc(-c4ccc(F)cc4)c-2c13` (atropisomer, axis not shown) [Example 24, (7R,16R,21S)-10-({2-[2-(carboxymethoxy)phenyl]pyrimidin-4-yl}methoxy)-19-chloro-1-(4-fluorophenyl)-20-methyl-16-[(4-methylpiperazin-1-yl)methyl]-7,8,15,16-tetrahydro-18,21-etheno-13,9-(metheno)-6,14,17-trioxa-2-thia-3,5-diazacyclononadeca[1,2,3-cd]indene-7-carboxylic Acid], the Ki stood at 0.098 nM at GST-MCL-1 (setting [3]) and 0.015 nM at GST-MCL-1 (setting [4]). Besides, the IC50 in test [1] (setting [5]) worked out at 0.157 µM; in test [2] (setting [6]), 0.0385 µM.

For the compound `COCCOCCOCCC1CCN(C[C@@H]2COc3ccc(OCc4ccnc(-c5ccccc5OC)n4)c(c3)C[C@H](C(=O)O)Oc3ncnc4sc(-c5ccc(F)cc5)c(c34)-c3ccc(c(Cl)c3C)O2)CC1` (atropisomer, axis not shown) [Example 27, (7R,16R,21R)-19-chloro-1-(4-fluorophenyl)-16-[(4-{2-[2-(2-methoxyethoxy)ethoxy]ethyl}piperidin-1-yl)methyl]-10-{[2-(2-methoxyphenyl)pyrimidin-4-yl]methoxy}-20-methyl-7,8,15,16-tetrahydro-18,21-etheno-13,9-(metheno)-6,14,17-trioxa-2-thia-3,5-diazacyclononadeca[1,2,3-cd]indene-7-carboxylic Acid], the Ki is 22 nM on GST-MCL-1 (setting [3]) and 0.987 nM on GST-MCL-1 (setting [4]). Further, the figures for the IC50 in test [1] (setting [7]) and in test [2] (setting [8]) were 0.319 µM and 0.314 µM, respectively.

As for `COCCOCCOCCOCCOC[C@@H]1CCCC[C@H]1c1nccc(COc2ccc3cc2C[C@H](C(=O)O)Oc2ncnc4sc(-c5ccc(F)cc5)c(c24)-c2c(C)c(Cl)c(c(Cl)c2C)O[C@H](CN2CCN(C)CC2)CO3)n1` (relative stereo) [Example 120, (7R,16R)-19,23-dichloro-1-(4-fluorophenyl)-20,22-dimethyl-16-[(4-methylpiperazin-1-yl)methyl]-10-({2-[(1R*,2R*)-2-(2,5,8,11,14-pentaoxapentadecan-1-yl)cyclohexyl]pyrimidin-4-yl}methoxy)-7,8,15,16-tetrahydro-18,21-etheno-13,9-(metheno)-6,14,17-trioxa-2-thia-3,5-diazacyclononadeca[1,2,3-cd]indene-7-carboxylic Acid], at GST-MCL-1 (setting [4]), the Ki was 26.3 nM. The IC50 is 0.000386 µM in test [1] (setting [5]) and 0.000231 µM in test [2] (setting [6]).

Consider `COCCOCCOCCOCCOC[C@H]1CCCC[C@@H]1c1nccc(COc2ccc3cc2C[C@H](C(=O)O)Oc2ncnc4sc(-c5ccc(F)cc5)c(c24)-c2c(C)c(Cl)c(c(Cl)c2C)O[C@H](CN2CCN(C)CC2)CO3)n1` (relative stereo) [Example 124, (7R,16R)-19,23-dichloro-1-(4-fluorophenyl)-20,22-dimethyl-16-[(4-methylpiperazin-1-yl)methyl]-10-({2-[(1S*,2S*)-2-(2,5,8,11,14-pentaoxapentadecan-1-yl)cyclohexyl]pyrimidin-4-yl}methoxy)-7,8,15,16-tetrahydro-18,21-etheno-13,9-(metheno)-6,14,17-trioxa-2-thia-3,5-diazacyclononadeca[1,2,3-cd]indene-7-carboxylic Acid], for which the Ki came to 0.145 nM at GST-MCL-1 (setting [3]) and 0.012 nM at GST-MCL-1 (setting [4]). Besides, the IC50 in test [1] (setting [5]) worked out at 0.000818 µM; in test [2] (setting [6]) it was 0.000355 µM.

For `COCCOCCOC[C@@]1(F)CC=C(c2nccc(COc3ccc4cc3C[C@H](C(=O)O)Oc3ncnc5sc(C6=CCCC6)c(c35)-c3c(C)c(Cl)c(c(Cl)c3C)O[C@H](CN3CCN(C)CC3)CO4)n2)CC1` (relative stereo) [Example 135, (7R,16R)-19,23-dichloro-1-(cyclopent-1-en-1-yl)-10-({2-[(4S*)-4-fluoro-4-{[2-(2-methoxyethoxy)ethoxy]methyl}cyclohex-1-en-1-yl]pyrimidin-4-yl}methoxy)-20,22-dimethyl-16-[(4-methylpiperazin-1-yl)methyl]-7,8,15,16-tetrahydro-18,21-etheno-13,9-(metheno)-6,14,17-trioxa-2-thia-3,5-diazacyclononadeca[1,2,3-cd]indene-7-carboxylic Acid], the Ki on GST-MCL-1 (setting [3]) came out at 0.489 nM; at GST-MCL-1 (setting [4]), 0.029 nM. In addition, the IC50 in test [1] (setting [5]) was determined as 0.000591 µM; in test [2] (setting [6]) it was 0.000191 µM.

Regarding `Cc1c(Cl)c2c(Cl)c(C)c1-c1c(-c3ccc(F)cc3)sc3ncnc(c13)O[C@@H](C(=O)O)Cc1cc(ccc1OCc1ccnc(C3=CCC(CC(=O)O)CC3)n1)OC[C@@H](CN1CCN(C)CC1)O2` (single isomer, unassigned) [Example 35, (7R,16R)-10-({2-[(4S*)-4-(carboxymethyl)cyclohex-1-en-1-yl]pyrimidin-4-yl}methoxy)-19,23-dichloro-1-(4-fluorophenyl)-20,22-dimethyl-16-[(4-methylpiperazin-1-yl)methyl]-7,8,15,16-tetrahydro-18,21-etheno-13,9-(metheno)-6,14,17-trioxa-2-thia-3,5-diazacyclononadeca[1,2,3-cd]indene-7-carboxylic Acid], the Ki at GST-MCL-1 (setting [3]) is 0.113 nM; on GST-MCL-1 (setting [4]), 0.007 nM. The IC50 in test [1] (setting [5]) stood at 0.017 µM; in test [2] (setting [6]), 0.01 µM.
